In patent US4954358A, “Multiplication inhibitor for Bacillus cereus” (priority 1986, dated 1990):

Columns and labels:
Type in all cases: cell-based
total viable bacteria = test: Keeping test, cooked rice not contaminated with Bacillus cereus, 30° C.; settings: time without smell of putrefaction or change in outward appearance
Bacillus cereus [1] = test: Keeping test, cooked rice contaminated with Bacillus cereus, 30° C.; settings: for Effective keeping time: cooked rice contaminated with Bacillus cereus, 30° C., time until Bacillus cereus 10^6 /g or more; for effectiveness against Bacillus cereus in tests with actual food: cooked rice (Example 4), result in words
Protocol: Two hundred grams of polished rice was washed in water, and with the addition of 240 ml of water, it was cooked for approximately 15 minutes in an electric rice-cooker which was of the type in public use. The rice cooked was left standing in hot steam for 10 minutes, and then left to cool off at room temperature. On the other hand, a suspension of spores of Bacillus cereus was prepared and added to the cooked rice, which had cooled off, in the proportion of n×10^2 to 1 g final specimen. Specimens were prepared by mixing the rice evenly with addition of the spores.
The cooked rice was put in a plastic case for each 120 g and its temperature was maintained at 30° C., and the number of total viable bacteria and the number of Bacillus cereus were measured periodically using a standard agar culture medium (37° C., 48 hours) and a polymyxin BCW agar culture medium with 5% egg yellow (37° C., 24 hours) for each In parallel with this measurement of the bacterium number, the specimens were examined concerning the outward appearance and the possible smell of putrefaction.
Each of the chemicals shown in Table 4 was dissolved in 20 ml of water to form an aqueous solution of a set concentration.

[2] = test system: Leuconostoc mesenteroides; test: MIC, agar plate dilution method on standard nutrient agar; settings: 37° C., 24 hours
Protocol: (§1) The minimum growth inhibiting concentration (MIC) of various antibacterial substances against Bacillus cereus and other general putrefying bacteria were measured by using a standard nutrient agar (made by Difco Corp.) and by introducing the agar plate dilution method.
(§2) On a plain culture medium on which chemicals were placed in a stepwise dilution system the liquid spore suspension (×10^8 /ml) with respect to the strains of the genus of Bacillus and the respective pre-culture mediums (37° C., 24 hours) provided by Brain Heart Infusion Broth with respect to the other strains were smeared.

Bacillus coaglans = test: as above; settings: Bacillus coaglans spores, 37° C., 24 hours
Protocol: as §1, §2

Staphylococcus aureus = test: as above; settings: 37° C., 24 hours
Protocol: as §1, §2

Bacillus licheniformis = test: as above; settings: Bacillus licheniformis spores, 37° C., 24 hours
Protocol: as §1, §2

Bacillus subtilis = test: as above; settings: Bacillus subtilis spores, 37° C., 24 hours
Protocol: as §1, §2

Lactobacillus casei = test: as above; settings: 37° C., 24 hours
Protocol: as §1, §2

Bacillus cereus [3] = test: as above; settings: for minimum growth inhibiting concentration (MIC): Bacillus cereus spores, 37° C., 24 hours, judged with the naked eye; for growth inhibition effect against Bacillus cereus: standard nutrient agar, result in words
Protocol: as §1, §2

Streptococcus faecalis = test: as above; settings: 37° C., 24 hours
Protocol: as §1, §2

Bacillus megaterium = test: as above; settings: Bacillus megaterium spores, 37° C., 24 hours
Protocol: as §1, §2

[4] = test system: total viable active bacteria; test: Keeping test, potato salad not contaminated with Bacillus cereus, 30° C.; settings: time without smell of putrefaction or change in outward appearance
Protocol: (§3) Potato salad was prepared according to the following recipe.
(§4) Mayonnaise in the proportion of 10% by weight against the above materials was combined with various chemicals of prescribed concentrations listed in Table 5 and these were evenly mixed with the above food materials. Mixed specimens were prepared by inoculating Bacillus cereus in the form of a spore suspension in such a way as to make the bacterial number n×10^2 per gram on the final specimen.
(§5) The potato salad thus prepared was packed into plastic containers and left standing at 30° C. The bacterial number of total viable active bacteria and that of Bacillus cereus were measured with respect to the changes with time by the same method as in Example 1.
(§6) The effective keeping time and the figures in the upper and the lower spaces for each chemical in the list are used in the same meanings as in Example 4.

Bacillus cereus [5] = test: Keeping test, potato salad contaminated with Bacillus cereus, 30° C.; settings: time until Bacillus cereus 10^6 /g or more
Protocol: as §3, §4
The same Bacillus cereus as in Example 1 was employed for this example.
as §5, §6

Lysozyme
Effective keeping time (total viable bacteria; chemical 0.05% by weight): 35.0 h
Effective keeping time (Bacillus cereus [1]; chemical 0.05% by weight): 8.5 h
minimum growth inhibiting concentration (MIC) [2]: > 0.05%
minimum growth inhibiting concentration (MIC) (Bacillus coaglans): 0.05%
minimum growth inhibiting concentration (MIC) (Staphylococcus aureus): > 0.05%
minimum growth inhibiting concentration (MIC) (Bacillus licheniformis): > 0.05%
minimum growth inhibiting concentration (MIC) (Bacillus subtilis): 0.02%
minimum growth inhibiting concentration (MIC) (Lactobacillus casei): > 0.05%
minimum growth inhibiting concentration (MIC) (Bacillus cereus [3]): > 0.05%
minimum growth inhibiting concentration (MIC) (Streptococcus faecalis): > 0.05%
minimum growth inhibiting concentration (MIC) (Bacillus megaterium): 0.05%

O=P1([O-])OP(=O)([O-])OP(=O)([O-])OP(=O)([O-])OP(=O)([O-])OP(=O)([O-])O1.[Na+].[Na+].[Na+].[Na+].[Na+].[Na+] [Sodium hexametaphosphate]
Effective keeping time (total viable bacteria; chemical 0.5% by weight): 35.0 h
Effective keeping time (Bacillus cereus [1]; chemical 0.5% by weight): 9.2 h
minimum growth inhibiting concentration (MIC) ([2]; in %): 0.125
minimum growth inhibiting concentration (MIC) (Bacillus coaglans; in %): 0.125
minimum growth inhibiting concentration (MIC) (Staphylococcus aureus; in %): 0.125
minimum growth inhibiting concentration (MIC) (Bacillus licheniformis; in %): 0.125
minimum growth inhibiting concentration (MIC) (Bacillus subtilis; in %): 0.125
minimum growth inhibiting concentration (MIC) (Lactobacillus casei; in %): 0.125
minimum growth inhibiting concentration (MIC) (Bacillus cereus [3]; in %): 0.125
growth inhibition effect against Bacillus cereus (Bacillus cereus [3]): showed effectiveness
minimum growth inhibiting concentration (MIC) (Streptococcus faecalis; in %): 0.125
minimum growth inhibiting concentration (MIC) (Bacillus megaterium; in %): 0.125

CCO [Ethyl alcohol]
Effective keeping time ([4]; chemical 1% by weight): 29.2 h
Effective keeping time (Bacillus cereus [5]; chemical 1% by weight): 10.0 h

protamine sulfate
minimum growth inhibiting concentration (MIC) [2]: 0.1%
minimum growth inhibiting concentration (MIC) (Bacillus coaglans): 0.05%
minimum growth inhibiting concentration (MIC) (Staphylococcus aureus): 0.05%
minimum growth inhibiting concentration (MIC) (Bacillus licheniformis): 0.05%
minimum growth inhibiting concentration (MIC) (Bacillus subtilis): 0.05%
minimum growth inhibiting concentration (MIC) (Lactobacillus casei): 0.1%
minimum growth inhibiting concentration (MIC) (Bacillus cereus [3]): 0.1%
minimum growth inhibiting concentration (MIC) (Streptococcus faecalis): 0.1%
minimum growth inhibiting concentration (MIC) (Bacillus megaterium): 0.05%

CC(=O)[O-].[Na+] [Sodium acetate]
Effective keeping time (total viable bacteria; chemical 0.4% by weight): 43.0 h
effectiveness against Bacillus cereus in tests with actual food (Bacillus cereus [1]): proved effective, though the effect is of no practical value
Effective keeping time (Bacillus cereus [1]; chemical 0.4% by weight): 11.5 h
Effective keeping time ([4]; chemical 0.4% by weight): 27.0 h
minimum growth inhibiting concentration (MIC) [2]: > 0.5%
minimum growth inhibiting concentration (MIC) (Bacillus coaglans): > 0.5%
minimum growth inhibiting concentration (MIC) (Staphylococcus aureus): > 0.5%
minimum growth inhibiting concentration (MIC) (Bacillus licheniformis): > 0.5%
minimum growth inhibiting concentration (MIC) (Bacillus subtilis): > 0.5%
minimum growth inhibiting concentration (MIC) (Lactobacillus casei): > 0.5%
minimum growth inhibiting concentration (MIC) (Bacillus cereus [3]): > 0.5%
minimum growth inhibiting concentration (MIC) (Streptococcus faecalis): > 0.5%
minimum growth inhibiting concentration (MIC) (Bacillus megaterium): > 0.5%
Effective keeping time (Bacillus cereus [5]; chemical 0.4% by weight): 10.0 h

CCCCCCCCCCCC(=O)OCC(O)CO (stereo not drawn) [Lauric acid monoglyceride]
Effective keeping time (total viable bacteria; chemical 0.01% by weight): 40.0 h
Effective keeping time (Bacillus cereus [1]; chemical 0.01% by weight): 8.2 h
Effective keeping time ([4]; chemical 0.01% by weight): 22.0 h
minimum growth inhibiting concentration (MIC) [2]: 0.01%
minimum growth inhibiting concentration (MIC) (Bacillus coaglans; in %): 0.0025
minimum growth inhibiting concentration (MIC) (Staphylococcus aureus): 0.01%
minimum growth inhibiting concentration (MIC) (Bacillus licheniformis; in %): 0.0025
minimum growth inhibiting concentration (MIC) (Bacillus subtilis; in %): 0.0025
minimum growth inhibiting concentration (MIC) (Lactobacillus casei): 0.01%
minimum growth inhibiting concentration (MIC) (Bacillus cereus [3]; in %): 0.0025
growth inhibition effect against Bacillus cereus (Bacillus cereus [3]): showed effectiveness
minimum growth inhibiting concentration (MIC) (Streptococcus faecalis): 0.01%
minimum growth inhibiting concentration (MIC) (Bacillus megaterium; in %): 0.0025
Effective keeping time (Bacillus cereus [5]; chemical 0.01% by weight): 11.5 h

O=P([O-])([O-])OP(=O)([O-])[O-].[Na+].[Na+].[Na+].[Na+] [Sodium pyrophosphate]
Effective keeping time (total viable bacteria; chemical 0.5% by weight): 35.0 h
Effective keeping time (Bacillus cereus [1]; chemical 0.5% by weight): 8.6 h
minimum growth inhibiting concentration (MIC) [2]: > 0.5%
minimum growth inhibiting concentration (MIC) (Bacillus coaglans): > 0.5%
minimum growth inhibiting concentration (MIC) (Staphylococcus aureus): > 0.5%
minimum growth inhibiting concentration (MIC) (Bacillus licheniformis): > 0.5%
minimum growth inhibiting concentration (MIC) (Bacillus subtilis): > 0.5%
minimum growth inhibiting concentration (MIC) (Lactobacillus casei): > 0.5%
minimum growth inhibiting concentration (MIC) (Bacillus cereus [3]): > 0.5%
minimum growth inhibiting concentration (MIC) (Streptococcus faecalis): > 0.5%
minimum growth inhibiting concentration (MIC) (Bacillus megaterium): > 0.5%

protamine
effectiveness against Bacillus cereus in tests with actual food (Bacillus cereus [1]): only protamine has proved to be effective
growth inhibition effect against Bacillus cereus (Bacillus cereus [3]): showed effectiveness

CCCCCCCCCC(=O)OCC(O)CO (stereo not drawn) [Capric acid monoglyceride]
Effective keeping time (total viable bacteria; chemical 0.01% by weight): 35.0 h
Effective keeping time (Bacillus cereus [1]; chemical 0.01% by weight): 8.4 h
minimum growth inhibiting concentration (MIC) ([2]; in %): 0.025
minimum growth inhibiting concentration (MIC) (Bacillus coaglans): 0.01%
minimum growth inhibiting concentration (MIC) (Staphylococcus aureus; in %): 0.025
minimum growth inhibiting concentration (MIC) (Bacillus licheniformis): 0.01%
minimum growth inhibiting concentration (MIC) (Bacillus subtilis): 0.01%
minimum growth inhibiting concentration (MIC) (Lactobacillus casei; in %): 0.025
minimum growth inhibiting concentration (MIC) (Bacillus cereus [3]): 0.01%
growth inhibition effect against Bacillus cereus (Bacillus cereus [3]): showed effectiveness
minimum growth inhibiting concentration (MIC) (Streptococcus faecalis; in %): 0.025
minimum growth inhibiting concentration (MIC) (Bacillus megaterium): 0.01%

Caprylic acid monoglyceride
Effective keeping time (total viable bacteria; chemical 0.05% by weight): 35.0 h
Effective keeping time (Bacillus cereus [1]; chemical 0.05% by weight): 8.6 h
minimum growth inhibiting concentration (MIC) [2]: 0.05%
minimum growth inhibiting concentration (MIC) (Bacillus coaglans): 0.05%
minimum growth inhibiting concentration (MIC) (Staphylococcus aureus): 0.1%
minimum growth inhibiting concentration (MIC) (Bacillus licheniformis): 0.05%
minimum growth inhibiting concentration (MIC) (Bacillus subtilis): 0.05%
minimum growth inhibiting concentration (MIC) (Lactobacillus casei): 0.05%
minimum growth inhibiting concentration (MIC) (Bacillus cereus [3]): 0.05%
growth inhibition effect against Bacillus cereus (Bacillus cereus [3]): showed effectiveness
minimum growth inhibiting concentration (MIC) (Streptococcus faecalis): 0.05%
minimum growth inhibiting concentration (MIC) (Bacillus megaterium): 0.05%

O=C([O-])c1ccccc1.[Na+] [sodium benzoate]
Effective keeping time ([4]; chemical 0.1% by weight): 92.0 h
Effective keeping time (Bacillus cereus [5]; chemical 0.1% by weight): 36.2 h

C/C=C/C=C/C(=O)O [Sorbic acid]
Effective keeping time ([4]; chemical 0.1% by weight): 96.0 h
Effective keeping time (Bacillus cereus [5]; chemical 0.1% by weight): 38.6 h

Sodium polyphosphate
Effective keeping time (total viable bacteria; chemical 0.5% by weight): 35.0 h
Effective keeping time (Bacillus cereus [1]; chemical 0.5% by weight): 9.0 h
minimum growth inhibiting concentration (MIC) [2]: 0.5%
minimum growth inhibiting concentration (MIC) (Bacillus coaglans): 0.5%
minimum growth inhibiting concentration (MIC) (Staphylococcus aureus): 0.5%
minimum growth inhibiting concentration (MIC) (Bacillus licheniformis; in %): 0.025
minimum growth inhibiting concentration (MIC) (Bacillus subtilis; in %): 0.025
minimum growth inhibiting concentration (MIC) (Lactobacillus casei): 0.5%
minimum growth inhibiting concentration (MIC) (Bacillus cereus [3]): 0.5%
growth inhibition effect against Bacillus cereus (Bacillus cereus [3]): showed effectiveness
minimum growth inhibiting concentration (MIC) (Streptococcus faecalis): 0.5%
minimum growth inhibiting concentration (MIC) (Bacillus megaterium; in %): 0.025

NCC(=O)O [Glycine]
Effective keeping time (total viable bacteria; chemical 1% by weight): 110.0 h
effectiveness against Bacillus cereus in tests with actual food (Bacillus cereus [1]): proved effective, though the effect is of no practical value
Effective keeping time (Bacillus cereus [1]; chemical 1% by weight): 10.1 h
Effective keeping time ([4]; chemical 1% by weight): 36.0 h
minimum growth inhibiting concentration (MIC) [2]: 4%
minimum growth inhibiting concentration (MIC) (Bacillus coaglans): 1%
minimum growth inhibiting concentration (MIC) (Staphylococcus aureus): 5%
minimum growth inhibiting concentration (MIC) (Bacillus licheniformis): 2%
minimum growth inhibiting concentration (MIC) (Bacillus subtilis): 1%
minimum growth inhibiting concentration (MIC) (Lactobacillus casei): 4%
minimum growth inhibiting concentration (MIC) (Bacillus cereus [3]): > 8%
minimum growth inhibiting concentration (MIC) (Streptococcus faecalis): 4%
minimum growth inhibiting concentration (MIC) (Bacillus megaterium): 1%
Effective keeping time (Bacillus cereus [5]; chemical 1% by weight): 12.0 h
